The values that follow come from US12012408B2, “Purine compounds and method for the treatment of cancer” (THE ROYAL INSTITUTION FOR THE ADVANCEMENT OF …, priority 2018, dated 2024).

In assay [1] the test system is cleaved-PARP, cleaved-caspase 3, Bcl-2 in MDA-MB-231 and BT-20 cells. The assay is described as follows: Western blot of indicators of apoptosis. The class given is cell-based. Conditions: FIG. 6B. How it is done: Sub-confluent cells were washed with PBS, lysed in RIPA buffer (50 mM Tris-HCl at pH7.5, 150 mM sodium chloride, 1% tritonX-100, 0.1% SDS, 2 mM EDTA and 25 mM sodium fluoride) supplemented with 1 mM PMSF and protease inhibitor cocktail (Roche) for 10 min on ice and centrifuged (13,000 rpm at 4° C. for 20 min) to separate cell lysate. Cell lysate (50 μg protein, as measured by the Bradford protein assay) was then added with SDS sample buffer (Tris at pH 6.8, 20% glycerol, 5% SDS, bromophenol blue and β-mercaptoethanol) and boiled for 5 min. Samples were then resolved through 13% SDS-PAGE gels, transferred to nitrocellulose membrane, blotted with specific first antibodies at different dilution in cold room overnight, and then amplified with horseradish peroxidase-conjugated secondary antibodies for 1 hour in room temperature and enhanced by chemiluminescence detection system.
Considering apoptosis is the major form of cell death induced by chemotherapeutic agent, we seek to identify whether the anticancer effect of SLLN-15 was mediated via apoptosis in breast cancer cells.
(In general: Immunoblotting shows a protein as a band on a membrane.)

Assay [2] relates to MDA-MB-231 and BT-20 cells. The assay is described as follows: MTT assay (short-term cell viability). The class given is cell-based. The following applies: time-dependent, SLLN-15 compared with vorinostat; FIG. 6A. How it is done:
The short-term effects of SLLN-15 on tumor cell growth were assessed using the 3-(4,5-dimethylthiazol-2-yl)-2,5-diphenylte-trazolium bromide (MTT; Sigma) assay. Cells were seeded at a density of 5000 cells/well in a 96-well plate and treated with SLLN-15 as indicated concentration or DMSO for 24 hours. MTT solution (5 mg/ml in RPMI 1640 medium) was added (20 μl/well), and plates were incubated for 4 hours in dark at 37° C., then the purple formazan crystals were then dissolved in 100 μl MTT solvent (4 mM HCl and 0.1% NP-40 in isopropanol). The plates were read on FLUOstar OPTIMA microplate reader (BMG Labtech, Ortenberg, Germany) at 570 nm. Assays were performed in triplicate on three independent experiments.

For the compound `O=C(CCCCCCC(=O)Nc1ccccc1)NO` [vorinostat, suberoylanilide hydroxamic acid, reference compound], the “indicators of apoptosis: upregulation of cleaved-PARP and cleaved-caspase 3, downregulation of Bcl-2” value in assay [1] is “only detected in vorinostat treated cells”. The “cell viability (MTT)” value in assay [2] is recorded as “markedly decreased cell viability”.
